Reference: patent US20230014445A1, “ALLOSTERIC CHROMENONE INHIBITORS OF PHOSPHOINOSITIDE 3-KINASE (PI3K) FOR THE TREATMENT OF DISEASE” (Petra Pharma Corporation, priority 2021, published 2023)
Read-outs that look alike come from different tables or passages of the source.

How the values were obtained:
[1] = target: PI3K-α (PIK3CA) in MDA-MB-453 cells (Homo sapiens, UniProt P42336); assay: PI3K-Alpha Kinase (PIK3CA) activity in vitro cell based assay (AlphaLisa SureFire)
Description: PI3K-Alpha Kinase (PIK3CA) Activity In Vitro Cell Based Assay and Determining IC50 Values for Inhibitors
The MDA-MB-453 (ATCC-HTB-131) cell line was obtained from the American Type Culture Collection (Manassas, Va.). Cells were maintained in Dulbecco's Modified Eagle Media (DMVEM, Gibco 11965-092) supplemented with 10% Fetal Bovine Serum, heat inactivated (FBS HI, Gibco 10082-147), 1× non-essential amino acids (NEAA, Gibco 11140-050), and 1 mM sodium pyruvate (Gibco 11360-070). Cultures were maintained in a humidified incubator at 37° C. under […].
For compound testing in 0% FBS, MDA-MB-453 cells were seeded at a density of 1.5×10^4 cells per well in white 384-well plates in 20 μl of Minimum Essential Media (MEM) assay media with 1×NEAA, 1 mM sodium pyruvate, and 1 μg/mL human insulin (Sigma I9278). Compounds dissolved in 10 mM stock solutions in DMSO were serially diluted 1:3 in DMSO to generate a 10-point dilution series and plated using an acoustic liquid handler system (Echo 550 Series Liquid Handler, Labcyte). A 5× intermediate compound dilution plate in MEM with 1×NEAA and 1 mM sodium pyruvate (150 μM starting compound concentration in 1.5% DMSO) was then prepared. Five μl of the intermediate serially diluted compounds were added to the cell plate to final concentrations ranging from […] in 0.3% DMSO. 0.3% DMSO alone was used to establish the maximum (MAX) signal and GDC-0032 at a final concentration of 1 μM was used as a reference compound for the minimum (MIN) signal. After 3 hours treatment, the medium was removed, and the cells lysed in 10 μL of 1× SureFire Lysis buffer with shaking for 10 minutes at room temperature. The Acceptor Mix (Reaction Buffer 1+Reaction Buffer 2+Activation Buffer+SureFire Ultra Acceptor Beads) was prepared by diluting Activation buffer 25-fold in combined Reaction Buffer 1 and Reaction Buffer 2. The Acceptor beads were diluted 50-fold in the combined Reaction Buffers. Five μL of Acceptor Mix was added to each well, the plate was sealed and covered with foil and incubated for 1 hour at room temperature. The Donor Mix (dilution buffer+SureFire Ultra Donor Beads) was prepared by diluting Donor Beads 50-fold in dilution buffer. Five μL of the Donor Mix was added to each well and the plate sealed and covered with foil and incubated for 1 hour at room temperature in the dark. The plates were read on a Neo2 plate reader instrument from Biotek using standard AlphaLisa settings.
Compounds were tested in duplicate and the average % inhibition at each compound concentration was used to generate a single dose response curve. The data were processed using the Genedata-Screener tool. Relative IC50 values were determined using luminescence units by calculating percent inhibition with respect to the in-plate “MIN” (GDC-0032 reference control) and “MAX” (DMSO) controls. The data was analyzed using a 4-parameter nonlinear logistic equation (four-parameter logistic concentration-response curve):
Y=bottom+[(top−bottom)/1+(X/IC50)slope]
where Y=% inhibition, X=concentration of inhibitor, bottom=minimum value of y attained by curve-fit, top=maximum value of y attained by curve-fit and slope=steepness of curve at the IC50.
% Inhibition=[(signal at X−median Min)/(median Max−median Min)]×100
IC50: concentration of compound that reduces a given response (ligand binding, enzyme response) by 50%. Relative IC50: concentration giving half the compound's maximum response.
For IC50 values shown in Table B, “A” means IC50<50 nM; “B” means IC50 ranging between 50 nM and 100 nM; “C” means IC50 ranging between 100 nM and 500 nM; “D” means IC50>500 nM.

[2] = target: T1, human full length PIK3KA Wild-type (p110α/p85α complex) (Homo sapiens, UniProt P42336); assay: PI3K-Alpha Kinase (PIK3CA) biochemical activity, wild-type (ADP-Glo); conditions: Soy PI lipid substrate, 20 uM ATP
T1 construct: Recombinant, catalytically active human full length PIK3KA Wild-type and H1047R mutant were purchased; 6xHis (N); purchased EMD Millipore Sigma 14-602M
In short: (§1)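 ADP formation, measured by ADP-Glo luminescence after reaction to about 10% ATP conversion at 27° C., gives 10-point 4-parameter IC50 curves normalized to no-enzyme and DMSO controls. Lipid substrate was PIP2diC8 or Soy PI at 50 uM, with 20 uM ATP. WT or H1047R p110α/p85α complex (1-5 nM) was preincubated 1 h with compound.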

[3] = target: T2, human full length PIK3KA H1047R mutant (p110α/p85α complex) (Homo sapiens, UniProt P42336, H1047R); assay: PI3K-Alpha Kinase (PIK3CA) biochemical activity, H1047R mutant (ADP-Glo); conditions: Soy PI lipid substrate, 20 uM ATP
T2 construct: Recombinant, catalytically active human full length PIK3KA Wild-type and H1047R mutant were purchased; 6xHis (N); purchased EMD Millipore Sigma 14-792M
In short: as §1

[4] = 0% FBS, 3 hours treatment, read-out: PI3K-α (PIK3CA) in vitro cell based assay IC50
[5] = read-out: PI3K-α (PIK3CA) in vitro cell based assay IC50, 0% FBS, 3 hours treatment

T2 sequence (P42336 whole entry H1047R): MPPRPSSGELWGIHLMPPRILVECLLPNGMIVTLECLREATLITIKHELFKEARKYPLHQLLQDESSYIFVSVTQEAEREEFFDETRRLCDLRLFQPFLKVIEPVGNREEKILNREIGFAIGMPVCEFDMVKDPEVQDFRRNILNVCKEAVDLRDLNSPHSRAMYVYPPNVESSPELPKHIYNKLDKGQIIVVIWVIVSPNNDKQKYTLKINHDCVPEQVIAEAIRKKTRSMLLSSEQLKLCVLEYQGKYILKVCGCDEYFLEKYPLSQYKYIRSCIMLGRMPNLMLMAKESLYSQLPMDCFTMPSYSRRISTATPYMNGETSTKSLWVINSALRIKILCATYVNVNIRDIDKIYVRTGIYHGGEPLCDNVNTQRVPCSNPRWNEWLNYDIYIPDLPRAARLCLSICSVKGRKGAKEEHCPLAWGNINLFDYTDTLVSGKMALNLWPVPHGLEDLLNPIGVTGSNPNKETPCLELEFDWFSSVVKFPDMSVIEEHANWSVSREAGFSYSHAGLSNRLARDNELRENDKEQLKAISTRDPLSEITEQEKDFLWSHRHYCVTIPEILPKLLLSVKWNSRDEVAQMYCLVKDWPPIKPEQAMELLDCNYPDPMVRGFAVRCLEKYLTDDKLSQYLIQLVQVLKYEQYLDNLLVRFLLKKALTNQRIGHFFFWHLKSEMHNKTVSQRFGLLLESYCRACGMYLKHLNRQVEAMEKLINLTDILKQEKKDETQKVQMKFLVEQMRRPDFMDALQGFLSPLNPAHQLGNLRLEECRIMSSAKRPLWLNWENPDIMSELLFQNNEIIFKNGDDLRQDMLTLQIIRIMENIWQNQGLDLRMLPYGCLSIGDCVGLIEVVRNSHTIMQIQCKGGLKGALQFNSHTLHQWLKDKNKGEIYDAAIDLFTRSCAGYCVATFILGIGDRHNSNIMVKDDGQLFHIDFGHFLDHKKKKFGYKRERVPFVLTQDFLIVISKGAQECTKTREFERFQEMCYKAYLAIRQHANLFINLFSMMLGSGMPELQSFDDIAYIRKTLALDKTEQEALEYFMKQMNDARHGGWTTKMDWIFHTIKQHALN
T2 sequence (P27986 whole entry partner): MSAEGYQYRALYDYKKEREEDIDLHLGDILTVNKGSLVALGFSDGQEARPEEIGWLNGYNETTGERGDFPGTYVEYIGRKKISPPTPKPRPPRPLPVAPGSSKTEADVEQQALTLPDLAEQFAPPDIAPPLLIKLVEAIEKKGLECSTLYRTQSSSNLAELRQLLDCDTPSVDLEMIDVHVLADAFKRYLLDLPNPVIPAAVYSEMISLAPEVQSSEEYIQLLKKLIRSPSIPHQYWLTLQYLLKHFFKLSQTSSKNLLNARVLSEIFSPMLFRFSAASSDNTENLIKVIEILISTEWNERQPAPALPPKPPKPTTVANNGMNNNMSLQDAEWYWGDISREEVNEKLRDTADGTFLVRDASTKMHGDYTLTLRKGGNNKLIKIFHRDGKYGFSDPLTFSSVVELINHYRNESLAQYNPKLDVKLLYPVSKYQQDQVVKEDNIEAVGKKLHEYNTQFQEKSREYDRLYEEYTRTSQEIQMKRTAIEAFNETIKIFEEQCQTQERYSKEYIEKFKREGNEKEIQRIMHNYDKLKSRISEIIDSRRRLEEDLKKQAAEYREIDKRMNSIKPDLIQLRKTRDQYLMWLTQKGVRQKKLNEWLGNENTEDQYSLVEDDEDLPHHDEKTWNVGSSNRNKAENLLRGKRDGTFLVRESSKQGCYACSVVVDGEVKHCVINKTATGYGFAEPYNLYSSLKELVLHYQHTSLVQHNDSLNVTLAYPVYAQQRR
PI3K-α (PIK3CA) in MDA-MB-453 cells, sequence (P42336 whole entry): as the sequence (P42336 whole entry H1047R) above, with R1047H counted along it
PI3K-α (PIK3CA) in MDA-MB-453 cells, sequence (P27986 2-724, further chain): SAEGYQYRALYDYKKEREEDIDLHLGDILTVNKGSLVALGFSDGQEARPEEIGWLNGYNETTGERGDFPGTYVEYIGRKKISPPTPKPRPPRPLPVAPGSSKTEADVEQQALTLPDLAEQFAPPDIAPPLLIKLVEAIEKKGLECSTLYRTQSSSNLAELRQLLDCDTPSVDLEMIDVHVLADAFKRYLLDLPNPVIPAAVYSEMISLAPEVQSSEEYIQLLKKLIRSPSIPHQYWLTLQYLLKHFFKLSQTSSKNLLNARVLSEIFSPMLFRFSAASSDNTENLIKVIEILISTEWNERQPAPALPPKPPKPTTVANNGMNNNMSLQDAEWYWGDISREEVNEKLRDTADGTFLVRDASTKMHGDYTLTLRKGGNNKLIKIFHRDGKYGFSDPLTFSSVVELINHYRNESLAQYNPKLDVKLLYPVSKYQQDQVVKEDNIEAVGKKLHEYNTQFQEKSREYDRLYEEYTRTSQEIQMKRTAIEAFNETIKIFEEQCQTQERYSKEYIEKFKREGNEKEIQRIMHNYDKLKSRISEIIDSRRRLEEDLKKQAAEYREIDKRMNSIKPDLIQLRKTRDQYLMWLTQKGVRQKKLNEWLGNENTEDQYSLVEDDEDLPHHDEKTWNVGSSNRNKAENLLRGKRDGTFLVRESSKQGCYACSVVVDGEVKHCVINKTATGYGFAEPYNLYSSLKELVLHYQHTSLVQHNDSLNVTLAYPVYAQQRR

Structure (SMILES): Cc1cc(C(C)Nc2cccnc2C(=O)O)c2oc(-c3cncc(F)c3)c(C)c(=O)c2c1 (single isomer, unassigned; isomer 1) [Example 131, 3-[1-[2-(5-Fluoro-3-pyridyl)-3,6-dimethyl-4-oxo-chromen-8-yl]ethylamino]pyridine-2-carboxylic acid, Isomer 1]
- IC50 [1, 4]: 50 to 100 nM
- IC50 [2]: > 10000 nM
- IC50 [3]: 1000 to 5000 nM

Structure (SMILES): Cc1c(-c2ccccn2)oc2c(C(C)Nc3ccc(Cl)nc3C(=O)O)cc(C(F)(F)F)cc2c1=O (single isomer, unassigned; isomer 1) [Example 61, 6-Chloro-3-[1-[3-methyl-4-oxo-2-(2-pyridyl)-6-(trifluoromethyl)chromen-8-yl]ethylamino]pyridine-2-carboxylic acid, Isomer 1]
- IC50 [1, 4]: < 50 nM
- IC50 [2]: 500 to 1000 nM
- IC50 [3]: < 500 nM

Structure (SMILES): Cc1cc(C(C)Nc2ccccc2C(=O)O)c2oc(-c3cncc(-n4cccn4)c3)c(C)c(=O)c2c1 (single isomer, unassigned) [Example 127, 2-[1-[3,6-Dimethyl-4-oxo-2-(5-pyrazol-1-yl-3-pyridyl)chromen-8-yl]ethylamino]benzoic acid, Isomer 1,2,2,2-trifluoroacetic acid]
- IC50 [1, 5]: < 50 nM
- IC50 [2]: 1000 to 5000 nM
- IC50 [3]: < 500 nM

Structure (SMILES): Cc1cc(C(C)Nc2ccc(F)c(F)c2C(=O)O)c2oc(-c3cnn(-c4ccc(C#N)cc4)c3)cc(=O)c2c1 (single isomer, unassigned; isomer 1) [Example 114, 6-[1-[2-[1-(4-Cyanophenyl)pyrazol-4-yl]-6-methyl-4-oxo-chromen-8-yl]ethylamino]-2,3-difluoro-benzoic acid, Isomer 1]
- IC50 [1, 4]: > 500 nM
- IC50 [2]: 5000 to 10000 nM
- IC50 [3]: 1000 to 5000 nM

Structure (SMILES): Cc1cc(C(C)Nc2ccc(C(F)(F)F)nc2C(=O)O)c2oc(-c3cccnc3)c(C)c(=O)c2c1 (single isomer, unassigned; isomer 1) [Example 117, 3-[1-[3,6-Dimethyl-4-oxo-2-(3-pyridyl)chromen-8-yl]ethylamino]-6-(trifluoromethyl)pyridine-2-carboxylic acid, Isomer 1]
- IC50 [1, 4]: < 50 nM
- IC50 [2]: 1000 to 5000 nM
- IC50 [3]: < 500 nM

Structure (SMILES): Cc1cc(C(C)Nc2cccc(F)c2C(=O)O)c2oc(-c3cnn(-c4ccc(C#N)cc4)c3)cc(=O)c2c1 (single isomer, unassigned; isomer 1) [Example 112, 2-[1-[2-[1-(4-Cyanophenyl)pyrazol-4-yl]-6-methyl-4-oxo-chromen-8-yl]ethylamino]-6-fluoro-benzoic acid, Isomer 1]
- IC50 [1, 4]: > 500 nM
- IC50 [2]: > 10000 nM
- IC50 [3]: 5000 to 10000 nM

Structure (SMILES): Cc1cc(C(C)Nc2cccc(F)c2C(=O)O)c2oc(-c3ccccn3)cc(=O)c2c1 (single isomer, unassigned; isomer 2) [Example 111, 2-Fluoro-6-[1-[6-methyl-4-oxo-2-(2-pyridyl)chromen-8-yl]ethylamino]benzoic acid, Isomer 2]
- IC50 [1, 4]: > 500 nM
- IC50 [2]: 1000 to 5000 nM
- IC50 [3]: 1000 to 5000 nM

Structure (SMILES): COc1ccc(-c2cc(=O)c3cc(C)cc(C(C)Nc4ccccc4C(=O)O)c3o2)cn1 (single isomer, unassigned; isomer 1) [Example 19, 2-[1-[2-(6-Methoxy-3-pyridyl)-6-methyl-4-oxo-chromen-8-yl]ethylamino]benzoic acid, Isomer 1]
- IC50 [1, 4]: > 500 nM
- IC50 [2]: > 10000 nM
- IC50 [3]: 5000 to 10000 nM

Structure (SMILES): Cc1cc(C(C)Nc2ccc(C)nc2C(=O)O)c2oc(-c3cncc(F)c3)c(C)c(=O)c2c1 (single isomer, unassigned; isomer 1) [Example 123, 3-[1-[2-(5-Fluoro-3-pyridyl)-3,6-dimethyl-4-oxo-chromen-8-yl]ethylamino]-6-methyl-pyridine-2-carboxylic acid, Isomer 1]
- IC50 [1, 4]: < 50 nM
- IC50 [2]: 1000 to 5000 nM
- IC50 [3]: < 500 nM

Structure (SMILES): Cc1cc(C(C)Nc2ccccc2C(=O)O)c2oc(-c3cnn(-c4ccc(C#N)cn4)c3)cc(=O)c2c1 (single isomer, unassigned) [Example 83, 2-[1-[2-[1-(5-Cyano-2-pyridyl)pyrazol-4-yl]-6-methyl-4-oxo-chromen-8-yl]ethylamino]benzoic acid, Isomer 2,2,2,2-trifluoroacetic acid]
- IC50 [1, 5]: 50 to 100 nM
- IC50 [2]: > 10000 nM
- IC50 [3]: < 500 nM

Structure (SMILES): Cc1cc(C(C)Nc2ccc(Br)nc2C(=O)O)c2oc(-c3cccnc3)c(C)c(=O)c2c1 (single isomer, unassigned; isomer 1) [Example 129, 6-Bromo-3-[1-[3,6-dimethyl-4-oxo-2-(3-pyridyl)chromen-8-yl]ethylamino]pyridine-2-carboxylic acid, Isomer 1]
- IC50 [1, 4]: < 50 nM
- IC50 [2]: < 500 nM
- IC50 [3]: < 500 nM

Structure (SMILES): Cc1cc(C(C)Nc2ccccc2C(=O)O)c2oc(-c3ccc(C(F)(F)F)nc3)cc(=O)c2c1 (single isomer, unassigned; isomer 1) [Example 37, 2-[1-[6-Methyl-4-oxo-2-[6-(trifluoromethyl)-3-pyridyl]chromen-8-yl]ethylamino]benzoic acid, Isomer 1]
- IC50 [1, 4]: > 500 nM
- IC50 [2]: > 10000 nM
- IC50 [3]: > 10000 nM

Structure (SMILES): Cc1cc(C(C)Nc2ccccc2C(=O)O)c2oc(-c3cncc(C#N)c3)c(C)c(=O)c2c1 (single isomer, unassigned) [Example 125, 2-[1-[2-(5-Cyano-3-pyridyl)-3,6-dimethyl-4-oxo-chromen-8-yl]ethylamino]benzoic acid, Isomer 1,2,2,2-trifluoroacetic acid]
- IC50 [1, 5]: < 50 nM
- IC50 [2]: 500 to 1000 nM
- IC50 [3]: < 500 nM

Structure (SMILES): Cc1cc(C(C)Nc2cccnc2C(=O)O)c2oc(-c3cccnc3)c(C)c(=O)c2c1 (single isomer, unassigned; isomer 1) [Example 116, 3-[1-[3,6-Dimethyl-4-oxo-2-(3-pyridyl)chromen-8-yl]ethylamino]pyridine-2-carboxylic acid, Isomer 1]
- IC50 [1, 4]: 50 to 100 nM
- IC50 [2]: 5000 to 10000 nM
- IC50 [3]: < 500 nM

Structure (SMILES): Cc1cc(C(C)Nc2ccc(Cl)nc2C(=O)O)c2oc(-c3ccccn3)c(C)c(=O)c2c1 (single isomer, unassigned; isomer 1) [Example 60, 6-Chloro-3-[1-[3,6-dimethyl-4-oxo-2-(2-pyridyl)chromen-8-yl]ethylamino]pyridine-2-carboxylic acid, Isomer 1]
- IC50 [1, 4]: < 50 nM
- IC50 [2]: 500 to 1000 nM
- IC50 [3]: < 500 nM

Structure (SMILES): Cc1cc(C(C)Nc2ccccc2C(=O)O)c2oc(-c3cnn(-c4ccccc4)c3)cc(=O)c2c1 (single isomer, unassigned) [Example 80, 2-[1-[6-Methyl-4-oxo-2-(1-phenylpyrazol-4-yl)chromen-8-yl]ethylamino]benzoic acid, Isomer 2,2,2,2-trifluoroacetic acid]
- IC50 [1, 5]: < 50 nM
- IC50 [2]: 5000 to 10000 nM
- IC50 [3]: < 500 nM
